According to article PMC11992208, “Structural basis for the prolonged photocycle of sensory rhodopsin II revealed by serial synchrotron crystallography” (Nature Communications, 2025):

Target: T1, sensory rhodopsin II (NpSRII) (Natronomonas pharaonis, UniProt P42196)
T1 construct: gene sop2; His-tagged, expressed in E. coli BL21star from pET27a, Ni-NTA and size exclusion; crystallised in LCP
T1 sequence (P42196 1-239): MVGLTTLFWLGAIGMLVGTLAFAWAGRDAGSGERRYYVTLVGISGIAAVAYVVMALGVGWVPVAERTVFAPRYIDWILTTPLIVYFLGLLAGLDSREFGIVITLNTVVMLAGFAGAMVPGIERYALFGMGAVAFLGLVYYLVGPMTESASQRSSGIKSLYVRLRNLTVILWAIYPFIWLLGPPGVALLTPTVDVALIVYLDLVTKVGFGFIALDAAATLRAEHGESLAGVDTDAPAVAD
Experiment: serial synchrotron X-ray crystallography
Format: binding
Conditions: covalent, room temperature

Structure (SMILES)	serial synchrotron X-ray crystallography (Lys205, photoisomerized in situ from all-trans retinal, M-state at partial occupancy, continuous 488 nm illumination)	serial synchrotron X-ray crystallography (protonated Schiff base to Lys205, dark resting state, LCP microcrystals)
CC1=C(/C=C/C(C)=C/C=C/C(C)=C\C=O)C(C)(C)CCC1 [13-cis retinal]	the population of the M-state was given a 13-cis retinal	
CC1=C(/C=C/C(C)=C/C=C/C(C)=C/C=O)C(C)(C)CCC1 [all-trans retinal]		the resting and O-state populations were refined with an all-trans retinal
